Test results published in patent EP0671947B1, “COMPOSITIONS FOR ELICITING CYTOTOXIC T-[…] AGAINST VIRUSES” (BOARD OF REGENTS THE UNIVERSITY OF TEXAS SYSTEM, priority 1991, dated 1993).
Entries after “also recorded” stand apart in the source; their conditions may differ. Where two headings read alike, the source gives them in different places. Ends that are not written are not given here.

Assays:
[1] = system: PBMC; test: PBMC proliferation after immunization with a mixture of eight synthetic peptides; type: in vivo, rhesus monkeys; set-up: key to T-cell Proliferation Responses, Rhesus Monkey #7 / T-cell Proliferation Responses, Rhesus Monkey #23 / T-cell Proliferation Responses, Rhesus Monkey #283C: (-), no detectable response; (1+), poor response; (2+), good response; (3+), better response; (4+, 6+), best response; (4+, 6+), best response; details: for T-cell Proliferation Responses, Rhesus Monkey #23 / T-cell Proliferation Responses, Rhesus Monkey #283C / T-cell Proliferation Responses, Rhesus Monkey #7: PBMC response to the individual antigen after immunization with mixture of eight peptides; for proliferative responses of PBMCs (in words): three rhesus monkeys immunized with mixture of eight peptides
Protocol: In the present studies, three rhesus monkeys (#7, #23 and #283C) were immunized subcutaneously with 1 ml (0.1 ml/site) of a mixture of eight synthetic peptides (300 µg of each peptide in sterile water) emulsified in complete Freund's adjuvant at 1:1 ratio. […] At 3 and 7 weeks after the primary immunization, two booster injections of the peptide mixture (150 µg of each peptide in sterile water) emulsified in incomplete Freund's adjuvant were given to each monkey. Monkey #7 was terminated after 34 weeks, for health reasons unrelated to the study, while the remaining two monkeys (#283C and #23) received one additional booster injection at 25 weeks.
At two week intervals following the first immunization of each animal, 15 ml of whole heparinized blood was collected by venous puncture. The peripheral blood mononuclear cells (PBMC) were separated by standard ficoll-hypaque centrifugation and employed in proliferation assays. The PBMCs were monitored every two weeks for a period of 32 weeks for proliferative responses against individual peptides and recombinant gp160.

[2] = system: BALB/c mice; test: ELISA for anti-peptide antibody response after immunization; details: high molecular weight forms
[3] = system: PLN cells; test: In vitro proliferation of PLN cells (3H-TdR incorporation) after footpad immunization; type: in vivo, B6C3 F1 mice; details: disulfide (di-Cys) polymeric form; summary of mouse studies
Protocol: The high molecular weight, multimeric di-Cys peptide polymeric forms of the peptides described in EXAMPLE 1 were assayed for their elicitation of a T cell proliferative response as in Millich et al. (1985).
FIGURES 2-5 illustrate the peptide-specific ^3H-TdR incorporation for T cell responses (delta cpm) in mice with differing major histocompatibility (MHC) haplotypes, B6C3 F1 (C57B1/6xC^3H/HcJ) mice (FIGURES 2 and 4) and (A.SWxBALB/c) F1 mice (FIGURES 3 and 5), for all of the synthetic peptides. The ^3H-TdR incorporation values represent the difference between the radioactivity values obtained in wells containing antigen and in control wells without added antigen. The non-specific proliferation of PLN cells was determined by including an unrelated peptide in the assays, shown as a horizontal bar for each peptide.

[4] = system: HIV-1 IIIB; test: Effect of V3 loop peptides on HIV-1 IIIB infection of human cells (RT activity); type: cell-based; details: No Peptide 7528, Uninfected cells 558
Text: As detailed in TABLE 11A, these peptides include D23, D24, D25, D26, D30, D35, D38, D39, D40 and D44, which reflect a variety of strains such as mn, rf, wmj-3, sc, z6, eli, mn (y-l) and mn (y-p). However, it is important to note that this assay was confined specifically to inhibiting the infection of the heterologous strain HIV-1 IIIB. […]

[5] = system: 3A9; type: in vivo, Balb/c mice; details: effector cells: No Treatment, target 3A9 (H-2^k)
[6] = system: envelope protein gp160 of HIV-1 IIIB, mn or rf strains; type: cell-based
[7] = system: HIV-1; type: cell-based, HIV-1 IIIB; details: 1 µg/ml; RT activity in culture supernatant after 9 days; IIIB strain
[8] = system: HIV-1 infected CCRF-CEM and uninfected Molt-4 cells; details: cited from earlier work
[9] = type: in vivo, Balb/c mice; details: helper T-cell peptide injected alone
[10] = system: P815; details: […]; same immunization protocol

Sequence: YLRDQQLLGIWGC [Peptide 61]
- T-cell Proliferation Responses, Rhesus Monkey #23 [1]: 3+
- T-cell Proliferation Responses, Rhesus Monkey #283C [1]: 2+
- proliferative responses of PBMCs (in words) [1]: Two of the three rhesus monkey-derived PBMC preparations also showed good proliferative responses
- anti-peptide antibody titers (in words) [2]: very low to negligible; also recorded: do not stimulate anti-peptide antibody production
- T cell response directed against both the corresponding peptide and native gp160 [3]: strong T cell response

Sequence: RTPTGLGQSLYTTRS [Peptide D38]
- RT ACTIVITY (CPM) [4]: 5823 CPM

Sequence: SLSIGPGRAPRTREI [Peptide D25]
- RT ACTIVITY (CPM) [4]: 4342 CPM

Sequence: LWDQSLKPCVKLT [Peptide 111]
- T-cell Proliferation Responses, Rhesus Monkey #7 [1]: 3+
- T-cell Proliferation Responses, Rhesus Monkey #23 [1]: 2+
- T-cell Proliferation Responses, Rhesus Monkey #283C [1]: 3+
- proliferative responses of PBMCs (in words) [1]: good proliferative responses
- anti-peptide antibody titers (in words) [2]: very low to negligible

Sequence: GVPVWKEATTLFC [Peptide 105]
- proliferative responses of PBMCs (in words) [1]: A significant response was not detected

Sequence: KKFNGTGPCTN [Peptide 115]
- anti-peptide antibody titers (in words) [2]: high antibody titers

Sequence: YNKRKRIHIGPGRAFYTTKNNIGC [Peptide D23]
- RT ACTIVITY (CPM) [4]: 94 CPM

Sequence: TYQRTRALVTG [Peptide B106, reference compound]
- % Specific Lysis ([5]; E:T 80:1): 0%
- % Specific Lysis ([5]; E:T 160:1): 0%

Sequence: NNTRKSITKGPGRVIYATGQIIGD [Peptide D26]
- RT ACTIVITY (CPM) [4]: 2093 CPM

Sequence: SIYIGPGRAFHTTGR [Peptide D32]
- RT ACTIVITY (CPM) [4]: 8002 CPM

Sequence: FEPIPIHYCAFPGF [Peptide 114]
- anti-peptide antibody titers (in words) [2]: high antibody titers

Sequence: CRIKQIINMWQGVGKAMYA [Peptide 65]
- anti-peptide antibody titers (in words) [2]: high antibody titers

Sequence: HIGPGRAFYTTKN [Peptide H13N]
- syncytia [6]: no syncytia were observed
- inhibition of HIV-1 infection of primary human T cells [7]: > 60%

Sequence: RIHIGPGRAFFTTKN [Peptide D40]
- RT ACTIVITY (CPM) [4]: 2805 CPM

Sequence: SVITQACSKVSFE [Peptide 113]
- T-cell Proliferation Responses, Rhesus Monkey #7 [1]: 1+
- T-cell Proliferation Responses, Rhesus Monkey #23 [1]: 2+
- T-cell Proliferation Responses, Rhesus Monkey #283C [1]: 2+
- proliferative responses of PBMCs (in words) [1]: weak responses
- anti-peptide antibody titers (in words) [2]: very low to negligible; also recorded: do not stimulate anti-peptide antibody production
- T cell response directed against both the corresponding peptide and native gp160 [3]: strong T cell response

Sequence: TKGPGRVIYATGQ [Peptide T13Q]
- syncytia [6]: no syncytia were observed
- inhibition of HIV-1 infection of primary human T cells [7]: > 60%

Sequence: VQCTHGIRPVVSTQ [Peptide 117]
- anti-peptide antibody titers (in words) [2]: high antibody titers

Sequence: STPIGLGQALYTTRG [Peptide D35]
- RT ACTIVITY (CPM) [4]: 5242 CPM

Sequence: STPIGLGQALYTTRI [Peptide D37]
- RT ACTIVITY (CPM) [4]: 7027 CPM

Sequence: CTRPNNNTRKSIRIQRGPGRAFVTIGKIGNMRQAHC [reference compound]
- inhibition of syncytium formation ([8]; 100 µM (approximately 300 µg/ml)): 30-60%

Sequence: GIHFGPGQALYTTGI [Peptide D33]
- RT ACTIVITY (CPM) [4]: 8959 CPM

Sequence: RIHIGPGRAFYTTKN [Peptide D24]
- RT ACTIVITY (CPM) [4]: 5000 CPM

Sequence: VYYGVPVWKEA [Peptide 104]
- T-cell Proliferation Responses, Rhesus Monkey #7 [1]: 4+
- T-cell Proliferation Responses, Rhesus Monkey #23 [1]: 2+
- T-cell Proliferation Responses, Rhesus Monkey #283C [1]: 4+
- proliferative responses of PBMCs (in words) [1]: good proliferative responses
- anti-peptide antibody titers (in words) [2]: very low to negligible; also recorded: do not stimulate anti-peptide antibody production
- T cell response directed against both the corresponding peptide and native gp160 [3]: strong T cell response

Sequence: SIRIGPGKVFTAKGG [Peptide D31]
- RT ACTIVITY (CPM) [4]: 11877 CPM

Sequence: SITKGPGRVIYATGQ [Peptide D28]
- RT ACTIVITY (CPM) [4]: 7634 CPM

Sequence: RIHIGPGARFLTTKN [Peptide D39]
- RT ACTIVITY (CPM) [4]: 1978 CPM

Sequence: CRIKQIINMWQGVGKAMYA [Peptide 122]
- CTL-inducing activity [9]: lacked CTL-inducing activity

Sequence: SIHIGPGRAFYATGD [Peptide D30]
- RT ACTIVITY (CPM) [4]: 3443 CPM

Sequence: FLGFLGAAGSTMGAASLTLTVQANQ [Peptide 63]
- T-cell Proliferation Responses, Rhesus Monkey #7 [1]: 2+
- T-cell Proliferation Responses, Rhesus Monkey #23 [1]: 4+
- T-cell Proliferation Responses, Rhesus Monkey #283C [1]: 3+
- proliferative responses of PBMCs (in words) [1]: good proliferative responses
- anti-peptide antibody titers (in words) [2]: very low to negligible; also recorded: do not stimulate anti-peptide antibody production
- T cell response directed against both the corresponding peptide and native gp160 [3]: strong T cell response

Sequence: RVTLGPGRVWYTTGE [Peptide D29]
- RT ACTIVITY (CPM) [4]: 13009 CPM

Sequence: GIAIGPGRTLYAREK [Peptide D27]
- RT ACTIVITY (CPM) [4]: 7657 CPM

Sequence: SLKPCVKLTPLC [Peptide 112]
- anti-peptide antibody titers (in words) [2]: high antibody titers

Sequence: SISIGPGRAFFATTD [Peptide D34]
- RT ACTIVITY (CPM) [4]: 11142 CPM

Sequence: NNTRKSIRIQRGPGRAFVTIGKIG [Peptide N24G]
- concentration required for inhibition of syncytium formation ([8]; to achieve the same level of inhibition (30-60%)): 300 µM
- inhibition of HIV-1 infection of primary human T cells [7]: 92%

Sequence: GTGPCTNVSTVQC [Peptide 116]
- T-cell Proliferation Responses, Rhesus Monkey #7 [1]: 1+
- T-cell Proliferation Responses, Rhesus Monkey #23 [1]: 3+
- T-cell Proliferation Responses, Rhesus Monkey #283C [1]: 2+
- proliferative responses of PBMCs (in words) [1]: weak responses
- anti-peptide antibody titers (in words) [2]: very low to negligible

Sequence: HGEFAPGNYPALWSYA [Peptide B105, reference compound]
- in vivo CTL response [10]: successfully generated
